Results reported in PMC11357484, “Investigating Changes in Pharmacokinetics of Steroidal Alkaloids from a Hydroethanolic Fritillariae thunbergii Bulbus Extract in 2,4-Dinitrobenzene Sulfonic Acid-Induced Colitis Rats” (Pharmaceuticals, 2024).

Tests used:
[1] = test system: LPS-stimulated RAW 264.7 cells; assay: Pro-inflammatory cytokine mRNA expression (qPCR) in LPS-stimulated RAW 264.7 cells; assay type: cell-based, mouse; conditions: 25 μg/mL; 24 h pretreatment then LPS 4 h; vs LPS alone
Method: (§1) The RAW 264.7, a mouse macrophage cell line (American Type Culture Collection, Manassas, VA, USA), was grown in DMEM medium supplemented with 10% fetal bovine serum and 1% penicillin–streptomycin at 37 °C with 5% CO2.
To evaluate the anti-inflammatory effects of the active ingredients in FTB, the cells were seeded in 12-well plates at 3 × 10^5 cells/mL and treated with 25 μg/mL of the four steroidal alkaloids, peimine, peimisine, peiminine and sipeimine, respectively, a concentration determined to be non-toxic according to the cell viability assay. LPS (Sigma-Aldrich, St. Louis, MO, USA) from Escherichia coli O111:B4 was used as a control at a concentration of 10 μg/mL. Cells were pretreated with the compounds for 24 h, followed by treatment with LPS for 4 h. After cells were harvested, total RNA was extracted using a total RNA extraction kit (Samjung Bioscience, Daejeon, Republic of Korea), and the extracted RNA was reverse transcribed into cDNA. The synthesized cDNA was subjected to quantitative polymerase chain reaction to measure the mRNA expression levels of cytokines using the following forward and reverse primers: IL-1β, forward, 5′-[…]-3′; reverse, 5′-[…]-3′; IL-6, forward, 5′-[…]-3′; reverse, 5′-[…]-3′; TNF-α, forward, 5′-[…]-3′; reverse, 5′-[…]-3′; GAPDH, forward, 5′-[…]-3′; reverse, 5′-[…]-3′.

RAW 264.7 cells = assay: Cell viability (EZ-Cytox) in RAW 264.7 cells; assay type: cell-based, mouse; conditions: 24 h incubation
Method: as §1
To determine cell viability against the four steroidal alkaloids, peimine, peimisine, peiminine, and sipeimine, RAW 264.7 cells were seeded at a density of 5 × 10^4 cells/well in 96-well plates and incubated overnight. Cells were then incubated with various concentrations of the four compounds (0, 0.78, 1.56, 3.13, 6.25, 12.5, 25, 50, and 100 μg/mL) for 24 h, respectively. Subsequently, 10 μL of EZ-Cytox (DoGenBio Co., Seoul, Republic of Korea) was added and incubated for 1 h. Absorbance was measured at 450 nm using an enzyme-linked immunosorbent assay reader (Bio-Rad Laboratories, Hercules, CA, USA). Cell viability was calculated by comparing the values measured with those of untreated cells.

[2] = Pharmacokinetics of steroidal alkaloids after single oral FTB dose in normal and DNBS-induced colitis rats; assay type: in vivo, Sprague–Dawley rats; conditions: for AUC_%Extrap_obs / AUClast / AUMClast / Cmax / MRT last / Tmax / half-life: oral FTB 1 g/kg single dose, plasma, mean ± SD, n = 5; for Cmax / MRT last / Tmax / half-life: male, Sprague-Dawley, rat, po, 1 g/kg; for half-life under colitis compared with normal conditions / systemic exposure under colitis condition compared with normal state: oral FTB 1 g/kg, DNBS vs normal rats
Method: Ten-week-old male Sprague–Dawley rats were obtained from Samtaco (Osan, Republic of Korea), quarantined, and acclimatized for one week before the experiments. All animal experiments were approved by the Animal Care and Use Committee of Chungnam National University (202304A-CNU-067). The rats were fasted for 14–16 h the day before administration of DNBS (Sigma-Aldrich). After the rats were anesthetized with isoflurane, the colitis group received a single dose of 30 mg/250 μL in 50% ethanol through a medical grade polyurethane catheter, injected rectally into the descending colon 8 cm from the anal sphincter. DNBS was administered slowly over 1 min, and the rats were kept supine in the Trendelenburg position for 3 min after injection to prevent leakage. The normal group received only 50% ethanol, following the same procedure as described above. The pharmacokinetic study was performed four days after DNBS administration, and both the normal and DNBS groups were orally administered a single dose of 1 g/kg FTB. Blood samples were obtained from the tail vein at 0, 0.5, 0.75, 1, 2, 4, 6, 8, 10, 12, 24, and 30 h, and the rats were sacrificed after the last blood collection. The plasma samples obtained were centrifuged at 16,000× g for 15 min and stored at −80 °C until analysis.
Plasma concentrations were measured using UPLC-MS/MS (Agilent Technologies Inc.) in the same manner as described above. 100 μL of plasma was vortexed with 20 μL ammonia water and 800 μL ethyl acetate for 15 min and centrifuged at 16,000× g for 15 min. After evaporating 800 μL of the supernatant under nitrogen at 40 °C, 50 μL of 50% methanol was added. The mixture was then vortexed and centrifuged, and 5 μL of the final extract was used for analysis.
For the plasma concentration analysis, the limit of detection and limit of quantification (LOQ) were defined based on the concentration of the analyte, which generated signal-to-noise (S/N) ratios of 3 and 10, respectively, following the “Guideline on Bioanalytical Method Validation” for the Ministry of Food and Drug Safety in Korea (MFDS 2023). Among the active ingredients of FTB, peimine, peimisine, peiminine, and sipeimine were detected in concentrations above the LOQ —the multiple reaction monitoring conditions of each of them are summarized in Supplementary Table S2. The calibration curves were linear over the concentration range of 0 to 2000 ng/mL, with a correlation coefficient of R^2 > 0.99. Precision and accuracy were evaluated by calculating the intra- and inter-day recoveries of quality control samples at three concentrations: 10, 50, and 100 ng/mL. The intra- and inter-day recoveries were within the range of 84.6 to 115.6%, and the coefficient of variation was less than 10%. Detailed validation results for the analysis method of peimine, peimisine, peiminine, and sipeimine are summarized in Supplementary Table S3.
The pharmacokinetic parameters were calculated based on a non-compartmental model using Monolix 2023R1 (Lixoft SAS, Simulations Plus Inc., Lancaster, CA, USA). The dosage of each component was calculated based on the content of the component within the FTB, and applied in the pharmacokinetics analysis. From the data analyzed, the Cmax of FTB and the time to Cmax (Tmax) were determined. Elimination half-life was obtained by linear regression of log-tranformed concentration data in the late phase. The AUC was estimated using the linear log-trapezoidal and linear up-log-down rules for the time of final concentration in each group.

[3] = cited from earlier work

SMILES | concentrations at which no toxicity was shown (cell viability) (RAW 264.7 cells) | AUC_%Extrap_obs ([2]; DNBS-treated (colitis) rats) | AUClast ([2]; DNBS-treated (colitis) rats) | AUMClast ([2]; DNBS-treated (colitis) rats) | Cmax ([2]; DNBS-treated (colitis) rats) | MRT last ([2]; DNBS-treated (colitis) rats) | Tmax ([2]; DNBS-treated (colitis) rats) | half-life ([2]; DNBS-treated (colitis) rats) | Cmax ([2]; normal rats) | MRT last ([2]; normal rats) | Tmax ([2]; normal rats) | half-life ([2]; normal rats) | AUC_%Extrap_obs ([2]; normal rats) | AUClast ([2]; normal rats) | AUMClast ([2]; normal rats) | half-life under colitis compared with normal conditions [2] | systemic exposure under colitis condition compared with normal state [2] | pKa [3] | partition coefficient (logP) [3] | also measured
C[C@H]1CC[C@@H]2N(C1)C[C@H]1[C@@H]3C[C@H]4[C@@H](CC(=O)[C@H]5C[C@@H](O)CC[C@@]54C)[C@@H]3CC[C@@H]1[C@]2(C)O [peiminine] | 0 to 25000 ng/mL | 3.3 ± 2.9% | 888.8 ± 286.0 h∗ng/mL | 3149.7 ± 1242.0 h∗h∗ng/mL | 209 ± 51.1 ng/mL | 3.6 ± 0.6 h | 1.3 ± 0.8 h | 1.8 ± 0.9 h | 228 ± 110 ng/mL | 4.7 ± 1.1 h | 1 ± 0.2 h | 4.5 ± 2 h | 14.5 ± 15.7% | 1172.4 ± 392.3 h∗ng/mL | 5302.0 ± 1844.3 h∗h∗ng/mL | shorter half-life | no observable difference | approximately 14 | 3.9 | IL-6 mRNA expression lowered [1]: approximately 5 fold
CC1=C2C[C@H]3[C@@H](CC(=O)C4C[C@@H](O)CC[C@@]43C)[C@@H]2CC[C@]12OC1C[C@H](C)CN[C@H]1[C@H]2C (some centres unmarked) [peimisine] | 0 to 25000 ng/mL | 8.9 ± 11.6% | 16,895.4 ± 5782.1 h∗ng/mL | 126,755.7 ± 54,141.2 h∗h∗ng/mL | 2330 ± 363 ng/mL | 7.3 ± 1.3 h | 1.5 ± 0.8 h | 7.7 ± 4.9 h | 656 ± 672 ng/mL | 5 ± 2 h | 0.9 ± 0.2 h | 3.9 ± 1.7 h | 5.3 ± 4.0% | 3959.3 ± 4738.6 h∗ng/mL | 23,522.8 ± 33,482.7 h∗h∗ng/mL |  | approximately five times higher | approximately 14 | 2.7 | IL-1β mRNA expression lowered [1]: about 6 fold; TNF-α mRNA expression lowered [1]: ~3 fold
C[C@H]1CC[C@@H]2N(C1)C[C@H]1[C@@H]3C[C@H]4[C@@H](CC(=O)[C@H]5C[C@@H](O)CC[C@@]54C)[C@@H]3CC[C@H]1[C@]2(C)O [sipeimine] | 0 to 25000 ng/mL | 11.0 ± 8.3% | 764.0 ± 285.5 h∗ng/mL | 3588.3 ± 1486.0 h∗h∗ng/mL | 162 ± 97 ng/mL | 4.7 ± 0.6 h | 2.4 ± 1.2 h | 3.2 ± 1.6 h | 64.7 ± 13.4 ng/mL | 5.4 ± 1.7 h | 1.3 ± 0.5 h | 6.9 ± 5.6 h | 10.4 ± 8.6% | 463.5 ± 232.8 h∗ng/mL | 2675.8 ± 2026.3 h∗h∗ng/mL | shorter half-life | no observable difference | approximately 14 | 4.4 | 
C[C@H]1CC[C@@H]2N(C1)C[C@H]1[C@@H]3C[C@H]4[C@@H](C[C@H](O)[C@H]5C[C@@H](O)CC[C@@]54C)[C@@H]3CC[C@@H]1[C@]2(C)O [peimine] | 0 to 25000 ng/mL | 6.6 ± 6.6% | 1076.9 ± 444.1 h∗ng/mL | 2819.7 ± 1408.9 h∗h∗ng/mL | 351 ± 150 ng/mL | 2.7 ± 0.6 h | 1 ± 0.7 h | 1.9 ± 0.7 h | 356 ± 253 ng/mL | 3.7 ± 0.8 h | 0.7 ± 0.2 h | 4 ± 2.5 h | 6.7 ± 5.5% | 1311.8 ± 762.6 h∗ng/mL | 4511.4 ± 2253.8 h∗h∗ng/mL | shorter half-life | no observable difference |  | 4.1 | 
